Measured values taken from paper PMC9611370 (Viruses, 2022).
Where two headings read alike, the source gives them in different places.

Experiments:
[1] = tested on: PHA-stimulated human PBMCs; experiment: Cytotoxicity assay (MTT) in uninfected PBMCs; type: cell-based
[2] = tested on: HIV-1NL4-3; experiment: In vitro antiviral assay (p24 ELISA) in PHA-stimulated human PBMCs; details: for IC50: read-out: NL4-3 Antiviral (PBMC) IC50; for IC90: read-out: NL4-3 Antiviral (PBMC) IC90
[3] = Human immunodeficiency virus 1, NL43, PBMC, in Homo sapiens, 168 h
[4] = PHA-stimulated human PBMCs, 7 days, p24 ELISA

SMILES	cytotoxicity better than NBD-14189 ([1]; PBMC, compared with NBD-14189)	IC50 [2, 3] [nM]	IC90 [2, 3] [nM]	CC50 ([1]; uninfected PBMCs, MTT, day 7, read-out: PBMC Toxicity CC50) [nM]	CC90 ([1]; uninfected PBMCs, MTT, day 7, read-out: PBMC Toxicity CC90) [nM]	SI CC50/IC50 ([2]; PBMC CC50 / NL4-3 IC50)	IC50 [2, 4] [nM]	IC90 [2, 4] [nM]
COc1cnc(-n2cnc(C)n2)c2[nH]cc(C(=O)C(=O)N3CCN(C(=O)c4ccccc4)CC3)c12 [BMS-626529]	about 3 fold	280	> 10000	–	–	–	–	–
C#C[C@]1(CO)O[C@@H](n2cnc3c(N)nc(F)nc32)C[C@@H]1O [EFdA]	–	–	–	23000	> 100000	13,000	1.7	> 66
